Measured values as given in paper PMC12483217, “Exploring β-catenin and TCF4 interaction in complex environments by means of novel biosensing platform focal molography” (PLOS One, 2025).
Values belong to the molecule of their own block, whether it stands above or below them. Where a SMILES comes first, the peptide text is derived from it. Where no end group is shown, it is not given here. The star is where a group is joined. Biotin = O=C1N[C@H]2[C@H](CS[C@H]2CCCCC(=O)*)N1

How the values were obtained:
Human β-catenin [1] = biological target: T1, Human β-catenin (Homo sapiens, UniProt P35222); experiment: Focal molography (FM) direct binding of β-catenin to immobilised TCO-TCF4(7–30), buffer; conditions: range over 3 sensors x 3 runs
T1 construct: Variant: β-catenin (human) (Hs134–670)+TCF4(Hs1–53); purchased Proteros Biostructures
T1 sequence (P35222 134-670): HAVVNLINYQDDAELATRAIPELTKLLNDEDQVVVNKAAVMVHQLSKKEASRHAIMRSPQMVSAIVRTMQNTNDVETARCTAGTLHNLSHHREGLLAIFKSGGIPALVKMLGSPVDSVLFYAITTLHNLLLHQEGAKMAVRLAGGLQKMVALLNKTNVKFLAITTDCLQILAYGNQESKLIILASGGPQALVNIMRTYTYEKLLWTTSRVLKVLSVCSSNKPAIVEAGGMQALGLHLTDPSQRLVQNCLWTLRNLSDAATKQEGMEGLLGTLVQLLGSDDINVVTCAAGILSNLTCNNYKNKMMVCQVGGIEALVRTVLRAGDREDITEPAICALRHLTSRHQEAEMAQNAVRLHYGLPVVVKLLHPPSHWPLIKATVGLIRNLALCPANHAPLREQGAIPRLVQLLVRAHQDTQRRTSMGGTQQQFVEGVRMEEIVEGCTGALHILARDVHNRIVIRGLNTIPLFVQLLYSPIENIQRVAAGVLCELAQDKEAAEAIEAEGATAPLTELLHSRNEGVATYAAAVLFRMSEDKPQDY
Experimental: (§1) FM experiments were conducted using a prototype FM reader from the “Fermi” generation developed by lino Biotech AG (Supplementary Figure 10 S1 File). The flow channel shape was hexagonal (Supplementary Figure 9 A&C S1 File) and the parallel region measured 12.0 x 1.9 x 0.1 mm. Only 18 molograms were recorded per measurement in order to save computing power for faster sampling rates of the intensities of the single molograms. Thus, the lower part of the double flow chamber was used. In all FM experiments, the same running buffer as in SPR was used. Samples in glass vials were injected from the autosampler (Alias, Spark Holland) and transferred with a syringe pump (Precision Syringe Drive/4, Hamilton) to the flow channel for 17 seconds at a flow rate of 400 µL/min (sample delivery step). […] During the association phase, the sample was passed through the flow chamber for one minute at a flow rate of 50 µL/min. To prevent the recording of the dilutive end of the sample, a fast flow rate of 500 µL/min was applied for two minutes to record the dissociation phase, followed by additional two minutes at a flow rate of 50 µL/min. For the regeneration, regeneration solution was injected from glass vials into the autosampler loop. The regeneration solution was passed through the flow chamber for three minutes at a flow rate of 100 µL/min.
(§2) A sensor chip of FM measured 9 x 18 mm. […]

Human β-catenin [2] = biological target: T1, Human β-catenin; experiment: Focal molography (FM) direct binding of β-catenin to immobilised TCO-TCF4(7–30), RKO cell lysate; conditions: cell lysate 1 Mio cells/mL, range over sensors and runs
Experimental: as §1, §2

Human β-catenin [3] = biological target: T1, Human β-catenin; experiment: SPR direct binding of β-catenin to immobilised biotinylated TCF4(7–30) in buffer; conditions: only one Hill slope
Experimental: (§3) For all SPR experiments, the running buffer consisting of 10 mM HEPES, 150 mM NaCl, 0.01% (v/v) P20, 1% (v/v) glycerol, 0.01% (v/v) BSA and 2% (v/v) DMSO at pH 7.4 was used. The TCF(7–30) peptide ([…]-K-biotin-amide) peptide was obtained from Biosyntan GmbH. Experiments were conducted at room temperature on a Biacore T200 (GE Healthcare, Uppsala, Sweden). The peptide was immobilized onto a Series S sensor chip SA (10352113, Cytiva, Uppsala, Sweden). Following the manufacturer’s protocol, the sensor was first prepared, and the peptide was injected at a concentration of 10 nM at a flow rate of 10 µL/min. Immobilization was achieved via biotin-streptavidin interaction to a level of 5, 25 and 50 RU in three different flow channels respectively. […] Binding analysis was monitored on all four flow channels with sample association time of one minute and dissociation time of four minutes at a flow rate of 50 µL/min. […]
(§4) The equilibrium dissociation constant (KD) and half maximal inhibitory concentration (IC50) were determined from binding signals collected in direct binding and competition experiments, respectively. […]
(§5) The SPR data was visualized and analyzed using GraphPad Prism 10.0.0 (Boston, Massachusetts USA, www.graphpad.com). For SPR analysis, signals recorded on the active surfaces were referenced with signals from the reference channel. […]

Human β-catenin [4] = biological target: T1, Human β-catenin; experiment: SPR competition: free TCF4(7–51) with 250 nM β-catenin over immobilised TCF4(7–30), buffer; format: binding; conditions: buffer pH 7.4, 95% confidence interval of fit
Experimental: as §3, §4, §5

Human β-catenin [5] = biological target: T1, Human β-catenin; experiment: Focal molography (FM) competition: free TCF4(7–51) with 250 nM β-catenin over TCF4(7–30) sensor, buffer; format: binding; conditions: range over 3 sensors x 3 runs
Experimental: as §1, §2

Human β-catenin [6] = biological target: T1, Human β-catenin; experiment: Focal molography (FM) competition: free TCF4(7–51) with 250 nM β-catenin over TCF4(7–30) sensor, RKO cell lysate; format: binding; conditions: cell lysate 1 Mio cells/mL
Experimental: as §1
A sensor chip of FM measured 9 x 18 mm. The sensing area per mologram was 400 x 400 µm with 54 molograms (6 x 9 array) being present on one sensor chip. The center to center spacing of molograms in flow direction was 690 µm and 750 µm perpendicular to the flow. The sensors used in FM were manufactured and treated following published manufacturing protocols with the difference that the photoprotective PhSNPPOC group was replaced by a more hydrophilic PySNPPOC group. To activate the ridges using reactive immersion lithography, a phase mask was placed on the surface with a layer of 0.1% (v/v) hydroxyl amine in DMSO applied in between the mask and the sensor surface. The chip was exposed at 405 nm at a dose of 4000 mJ/cm^2 with a custom-built setup. Following exposure, the chip was incubated in 1 mM methyltetrazine-4-polyethyleneglycol-N-Hydroxysuccinimide (MeTz-PEG4-NHS) dissolved in HBST (10 mM HEPES, 150 mM NaCl, 0.05% (v/v) Tween20, pH 8.0) for 1 hour. After incubation, the chip was washed sequentially with 50:50 H2O/DMSO, DMSO, Isopropanol and H2O. Next, the entire chip surface, including the grooves, was activated by flood illumination with a dose of 18 J/cm^2. The chip was washed sequentially with 50:50 MQ H2O/DMSO, DMSO, Isopropanol and MQ H2O. As a final step, the chip was incubated with 10 mM tetrazine (Tz)-PEG5-NHS in HBST (10 mM HEPES, 150 mM NaCl, 0.05% (v/v) Tween20, pH 8.0) for 1 hour and washed with isopropanol and H2O. […]

beta-catenin = biological target: T2, beta-catenin (Homo sapiens, UniProt P35222); experiment: SPR
T2 chain: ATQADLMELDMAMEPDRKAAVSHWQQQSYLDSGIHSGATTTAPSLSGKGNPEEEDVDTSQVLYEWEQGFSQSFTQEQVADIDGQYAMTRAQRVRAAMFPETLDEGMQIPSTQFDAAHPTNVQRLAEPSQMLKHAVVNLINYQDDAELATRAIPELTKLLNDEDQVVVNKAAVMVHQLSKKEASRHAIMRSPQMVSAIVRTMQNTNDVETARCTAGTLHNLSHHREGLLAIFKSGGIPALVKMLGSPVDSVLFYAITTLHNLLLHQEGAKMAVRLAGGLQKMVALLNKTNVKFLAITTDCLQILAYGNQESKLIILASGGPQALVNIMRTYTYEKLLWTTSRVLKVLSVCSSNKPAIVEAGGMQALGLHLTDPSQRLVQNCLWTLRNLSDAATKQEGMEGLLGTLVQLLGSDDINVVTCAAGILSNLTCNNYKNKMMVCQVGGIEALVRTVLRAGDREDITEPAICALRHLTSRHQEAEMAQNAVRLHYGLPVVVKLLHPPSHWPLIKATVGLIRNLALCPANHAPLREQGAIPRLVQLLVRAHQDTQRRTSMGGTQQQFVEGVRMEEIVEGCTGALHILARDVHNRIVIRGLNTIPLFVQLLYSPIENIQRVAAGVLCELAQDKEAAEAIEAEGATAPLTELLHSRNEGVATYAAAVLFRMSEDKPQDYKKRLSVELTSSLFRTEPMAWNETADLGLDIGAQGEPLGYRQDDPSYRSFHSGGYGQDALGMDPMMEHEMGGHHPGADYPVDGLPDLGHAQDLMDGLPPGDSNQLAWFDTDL

Kd (Human β-catenin [1]): 0.068 to 0.16 µM | Kd (Human β-catenin [2]): 0.1 to 0.14 µM
Molecule: CC[C@H](C)[C@H](NC(=O)[C@H](CC(C)C)NC(=O)[C@H](CCC(=O)O)NC(=O)[C@H](CC(=O)O)NC(=O)[C@H](CC(N)=O)NC(=O)[C@H](C)NC(=O)CNC(=O)[C@H](CC(C)C)NC(=O)[C@H](CC(=O)O)NC(=O)[C@H](CC(=O)O)NC(=O)CNC(=O)CNC(=O)CN)C(=O)N[C@@H](CO)C(=O)N[C@@H](Cc1ccccc1)C(=O)N[C@@H](CCCCN)C(=O)N[C@@H](CC(=O)O)C(=O)N[C@@H](CCC(=O)O)C(=O)NCC(=O)N[C@@H](CCC(=O)O)C(=O)N[C@@H](CCC(N)=O)C(=O)N[C@@H](CCC(=O)O)C(=O)N[C@@H](CCC(=O)O)C(=O)N[C@@H](CCCCN)C(=O)O [TCF4(7–30)] (H-GGGDDLGANDELISFKDEGEQEEK-OH)

Hill slope of the dose-response (Human β-catenin [3]): 1.21
Molecule: CC[C@H](C)[C@H](NC(=O)[C@H](CC(C)C)NC(=O)[C@H](CCC(=O)O)NC(=O)[C@H](CC(=O)O)NC(=O)[C@H](CC(N)=O)NC(=O)[C@H](C)NC(=O)CNC(=O)[C@H](CC(C)C)NC(=O)[C@H](CC(=O)O)NC(=O)[C@H](CC(=O)O)NC(=O)CNC(=O)CNC(=O)CN)C(=O)N[C@@H](CO)C(=O)N[C@@H](Cc1ccccc1)C(=O)N[C@@H](CCCCN)C(=O)N[C@@H](CC(=O)O)C(=O)N[C@@H](CCC(=O)O)C(=O)NCC(=O)N[C@@H](CCC(=O)O)C(=O)N[C@@H](CCC(N)=O)C(=O)N[C@@H](CCC(=O)O)C(=O)N[C@@H](CCC(=O)O)C(=O)N[C@@H](CCCCN)C(=O)N[C@@H](CCCCNC(=O)CCCC[C@@H]1SC[C@@H]2NC(=O)N[C@@H]21)C(N)=O [biotinylated TCF4(7–30)] (H-GGGDDLGANDELISFKDEGEQEEKK(Biotin)-NH2; N-terminus assumed)

IC50 (Human β-catenin [4]): 0.095 to 0.115 µM | IC50 (Human β-catenin [5]): 0.11 to 0.2 µM | IC50 (Human β-catenin [6]; Sensor 1, average of three runs, SD, read-out: IC50, Average ± SD): 0.17 µM | IC50 (Human β-catenin [6]; Sensor 2, average of three runs, SD, read-out: IC50, Average ± SD): 0.16 µM | IC50 (Human β-catenin [6]; Sensor 3, average of three runs, SD, read-out: IC50, Average ± SD): 0.14 µM | IC50 (Human β-catenin [6]; range over sensors and runs, read-out: IC50): 0.14 to 0.17 µM
Molecule: GGGDDLGANDELISFKDEGEQEEKSSENSSAERDLADVKSSLVNE [TCF4(7–51)]

Kd (beta-catenin): ~0.108 µM
Molecule: GGGDDLGANDELISFKDEGEQEEKSSENSSAERDLADVKSSLVNE [TCF4 peptide TCF(7-51) 7-51]
